Where a SMILES comes first, the peptide text is derived from it. [ ]: non-standard residue; d: D form. The star is where a group is joined. Phe(4-guanidino) = N=C(N)Nc1ccc(C[C@H](N)C(=O)O)cc1; Phe(4-CH2NH2) = NCc1ccc(C[C@H](N)C(=O)O)cc1; Phe(4-NH2) = Nc1ccc(C[C@H](N)C(=O)O)cc1; Bz = O=C(c1ccccc1)*
Legend:
[1] = Inhibition of Zika virus N-terminal His-tagged NS2B-NS3 protease expressed in Escherichia coli BL21 GOLD(DE3) using Bz-Nle-Lys-Lys-Arg-AMC as substrate preincubated for 10 mins followed by substrate addition by fluorophotometric method
[2] = Inhibition of Dengue virus serotype 2 His-tagged NS2B-NS3 protease using Abz-Nle-Lys-Arg-Arg-Ser-3-(NO2)Tyr as substrate preincubated for 15 mins followed by substrate addition measured for 15 mins by fluorescence assay; design: species or system dengue virus type 2
West Nile virus [3] = assay: Antiviral activity against West Nile virus infected in African green monkey Vero E6 cells assessed as virus yield reduction at 50 uM after 3 days by crystal violet staining based plaque assay relative to control; format: functional; design: scale not given: the % may be the effect or the level left
[4] = Cytotoxicity against human HuH7 cells assessed as reduction in cell viability after 48 hrs by CellTiter-Glo assay; format: toxicity, cell-based, Huh-7
[5] = Inhibition of West Nile virus His-tagged NS2B-NS3 protease expressed in Escherichia coli BL21(DE3) using Abz-Gly-Leu-Lys-Arg-Gly-Gly-3-(NO2)Tyr as substrate preincubated for 15 mins followed by substrate addition measured for 15 mins by fluorescence assay
dengue virus type 2 [6] = assay: Antiviral activity against Dengue virus serotype 2 infected in African green monkey Vero E6 cells assessed as virus yield reduction at 50 uM after 7 days by crystal violet staining based plaque assay relative to control; format: functional; design: scale not given: the % may be the effect or the level left
dengue virus type 2 [7] = assay: Inhibition of Dengue virus serotype 2 His-tagged NS2B-NS3 protease expressed in Escherichia coli BL21(DE3) at 50 uM using Abz-Nle-Lys-Arg-Arg-Ser-3-(NO2)Tyr as substrate preincubated for 15 mins followed by substrate addition measured for 15 mins by fluorescence assay relative to control
West Nile virus [8] = assay: Inhibition of West Nile virus His-tagged NS2B-NS3 protease expressed in Escherichia coli BL21(DE3) at 50 uM using Abz-Gly-Leu-Lys-Arg-Gly-Gly-3-(NO2)Tyr as substrate preincubated for 15 mins followed by substrate addition measured for 15 mins by fluorescence assay relative to control
West Nile virus [9] = assay: Antiviral activity against West Nile virus infected in African green monkey Vero E6 cells assessed as virus yield reduction after 3 days by crystal violet staining based plaque assay; format: functional, cell-based; details: 72 h
dengue virus type 2 [10] = assay: Antiviral activity against Dengue virus serotype 2 infected in African green monkey Vero E6 cells assessed as virus yield reduction after 7 days by crystal violet staining based plaque assay; format: functional, cell-based; details: 168 h
dengue virus type 2 [11] = assay: Antiviral activity against Dengue virus serotype 2 infected in African green monkey Vero E6 cells assessed as virus yield reduction at 3.1 uM after 7 days by crystal violet staining based plaque assay relative to control; format: functional; design: scale not given: the % may be the effect or the level left

Row | SMILES | IC50 [1] [nM] | IC50 [2] [nM] | IC50 [5] [nM] | inhibition (dengue virus type 2 [7]) [%] | inhibition (West Nile virus [8]) [%] | Ki [2] [nM] | Activity (West Nile virus [3]) [%] | CC50 at 48 h [4] [nM] | Ki [5] [nM] | also measured
1 | N=C(N)NCCC[C@H](NC(=O)[C@@H](NC(=O)c1ccccc1)c1cccc(NC(=N)N)c1)B(O)O | 1200 | 260 | 140 |  |  | 220 | 47 | > 100000 | 120 | Activity (dengue virus type 2 [6]): 24%
2 | N=C(N)NCCC[C@H](NC(=O)[C@@H](NC(=O)c1ccccc1)c1cccc(NC(=N)N)c1)C(N)=O |  |  |  | 9.8 | 22 |  |  |  |  | 
3 | NCCC[C@H](NC(=O)c1ccccc1)C(N)=O |  |  |  | 2 | 18 |  |  |  |  | 
4 | N=C(N)NCCC[C@H](NC(=O)[C@H](Cc1cccc(NC(=N)N)c1)NC(=O)c1ccccc1)C(N)=O |  | 211000 |  |  | 33 |  |  |  |  | 
5 | N=C(N)NCCC[C@H](NC(=O)[C@H](Cc1ccc(NC(=N)N)cc1)NC(=O)c1ccccc1)C(N)=O (Bz-[Phe(4-guanidino)]-Arg-NH2) |  | 87000 |  |  | 34 | 29000 |  |  |  | 
6 | NCCC[C@H](NC(=O)c1ccccc1)B(O)O | > 50000 |  |  | 8.3 | 30 |  | 33 | > 100000 |  | Activity (dengue virus type 2 [6]): 7.5%
7 | N=C(N)NCCC[C@H](NC(=O)c1ccccc1)C(N)=O |  |  |  | 9.7 | 9.6 |  |  |  |  | 
8 | CC(C)(C)c1ccc(C(=O)N[C@@H](Cc2ccc(NC(=N)N)cc2)C(=O)N[C@@H](CCCNC(=N)N)B(O)O)cc1 | 2100 | 110 | 210 |  |  | 78 | 30 | > 100000 | 160 | EC50 (dengue virus type 2 [10]): 19000 nM
9 | N=C(N)NCCC[C@H](NC(=O)c1ccccc1)B(O)O | > 50000 |  |  | 51.9 | 18 |  | 19 | > 100000 |  | Activity (dengue virus type 2 [6]): 12%
10 | CC(C)(C)c1ccc(C(=O)N[C@@H](Cc2ccc(NC(=N)N)cc2)C(=O)N[C@@H](CCCNC(=N)N)C(N)=O)cc1 |  | 145000 |  |  | 34 |  |  |  |  | 

Further lines, with some results ahead:

Row | IC50 [1] [nM] | IC50 [2] [nM] | IC50 [5] [nM] | inhibition (dengue virus type 2 [7]) [%] | inhibition (West Nile virus [8]) [%] | SMILES | Ki [2] [nM] | Activity (West Nile virus [3]) [%] | CC50 at 48 h [4] [nM] | Ki [5] [nM] | also measured
11 |  |  |  | 6.6 | 20 | N=C(N)NCCC[C@H](NC(=O)[C@H](Cc1ccc(CN)cc1)NC(=O)c1ccccc1)C(N)=O (Bz-[Phe(4-CH2NH2)]-Arg-NH2) |  |  |  |  | 
12 | 830 | 36 | 71 |  |  | N=C(N)NCCC[C@H](NC(=O)[C@H](Cc1ccc(NC(=N)N)cc1)NC(=O)c1ccccc1)B(O)O | 27 |  | > 100000 | 65 | EC50 (West Nile virus [9]): 25000 nM; EC50 (dengue virus type 2 [10]): 18000 nM
13 |  |  |  | 5.2 | 13 | N=C(N)NCCC[C@H](NC(=O)[C@H](Cc1ccc(N)cc1)NC(=O)c1ccccc1)C(N)=O (Bz-[Phe(4-NH2)]-Arg-NH2) |  |  |  |  | 
14 | 250 | 66 | 110 |  |  | N=C(N)NCCC[C@H](NC(=O)[C@H](Cc1ccc(CN)cc1)NC(=O)c1ccccc1)B(O)O | 51 |  | > 100000 | 82 | Ki [1]: 40 nM; EC50 (West Nile virus [9]): 38000 nM; EC50 (dengue virus type 2 [10]): 30000 nM
15 | 1900 | 110 | 310 |  |  | N=C(N)NCCC[C@H](NC(=O)[C@H](Cc1cccc(NC(=N)N)c1)NC(=O)c1ccccc1)B(O)O | 91 | 38 | ≥ 100000 | 300 | EC50 (dengue virus type 2 [10]): 48000 nM
16 | > 40000 | 7400 | 7400 |  |  | N=C(N)NCCC[C@H](NC(=O)[C@H](Cc1ccc(N)cc1)NC(=O)c1ccccc1)B(O)O | 4200 |  | 10100 | 6000 | EC50 (West Nile virus [9]): 1500 nM; Activity (dengue virus type 2 [11]): 44%

Reference: ChEMBL document CHEMBL3877304, “Peptide-Boronic Acid Inhibitors of Flaviviral Proteases: Medicinal Chemistry and Structural Biology” (J Med Chem, 2017)
